Laboratory results reported in patent US12139520B2 (priority 2020, dated 2024).
Numbered stars: 1 amine (or outer) side, 2 acyl side, 3 side chain; on linkers, the order of the positions; unused ones are H or OH. Bridge positions count the residues as written; N and C are the ends. Square brackets hold non-standard residues; d marks the D form. Peptide text beside a SMILES is read from it. * marks the point of attachment. C20 diacid = O=C(O)CCCCCCCCCCCCCCCCCCC(=O)*; γGlu = O=C(O)[C@H](CCC(=O)[*:2])N[*:1]; Hyp = O=C(O)[C@@H]1C[C@@H](O)CN1

Tests used:
[1] = target: T1, hAMY3 receptor (Homo sapiens, UniProt O60896+P30988); assay: cAMP assay for in vitro receptor activation, hAMY3-R; type: cell-based; settings: cAMP assay, hAMY3 receptor; read-out: hAMY3R EC50
T1 sequence (P30988 25-474): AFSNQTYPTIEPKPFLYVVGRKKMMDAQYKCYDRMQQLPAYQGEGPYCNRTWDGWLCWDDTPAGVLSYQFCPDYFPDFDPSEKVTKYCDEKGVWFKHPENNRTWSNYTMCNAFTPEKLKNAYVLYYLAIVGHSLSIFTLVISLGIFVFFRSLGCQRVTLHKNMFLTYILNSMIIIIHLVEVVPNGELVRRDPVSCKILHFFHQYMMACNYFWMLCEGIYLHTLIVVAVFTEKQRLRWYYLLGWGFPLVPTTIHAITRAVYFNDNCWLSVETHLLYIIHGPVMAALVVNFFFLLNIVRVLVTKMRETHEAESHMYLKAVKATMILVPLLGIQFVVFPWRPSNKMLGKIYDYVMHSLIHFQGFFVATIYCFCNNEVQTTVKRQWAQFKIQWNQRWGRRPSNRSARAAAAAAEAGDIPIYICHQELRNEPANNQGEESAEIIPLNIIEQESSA
T1 sequence (O60896 24-148 partner): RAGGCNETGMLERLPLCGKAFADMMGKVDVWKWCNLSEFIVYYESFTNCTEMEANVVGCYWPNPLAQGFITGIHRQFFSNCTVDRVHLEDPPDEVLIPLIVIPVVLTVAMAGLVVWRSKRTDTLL
How it was run: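 Read-out is TR-FRET cAMP signal, recorded one hour after reagent addition, following 30 min room-temperature stimulation of stable hAMY3 cells with graded compound doses in casein/IBMX (0.5 mM) buffer.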

[2] = target: hAM1 receptor (Homo sapiens, UniProt O60895+Q16602); assay: cAMP assay for in vitro receptor activation, hAM1-R; type: cell-based; settings: cAMP assay, hAM1 receptor; read-out: hAM1R EC50
Sequence of hAM1 receptor (Q16602 23-461): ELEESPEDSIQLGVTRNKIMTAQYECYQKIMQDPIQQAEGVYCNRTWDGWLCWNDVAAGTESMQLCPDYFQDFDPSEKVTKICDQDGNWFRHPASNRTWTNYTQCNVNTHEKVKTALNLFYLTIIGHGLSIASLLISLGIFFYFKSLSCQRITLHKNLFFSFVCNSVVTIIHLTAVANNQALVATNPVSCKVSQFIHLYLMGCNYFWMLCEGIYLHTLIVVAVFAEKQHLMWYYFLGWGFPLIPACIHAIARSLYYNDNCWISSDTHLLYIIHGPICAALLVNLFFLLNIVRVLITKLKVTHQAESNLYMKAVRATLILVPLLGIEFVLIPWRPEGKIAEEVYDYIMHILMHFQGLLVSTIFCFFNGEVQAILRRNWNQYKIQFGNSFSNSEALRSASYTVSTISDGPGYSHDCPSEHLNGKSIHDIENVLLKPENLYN
Sequence of hAM1 receptor (O60895 43-175 partner): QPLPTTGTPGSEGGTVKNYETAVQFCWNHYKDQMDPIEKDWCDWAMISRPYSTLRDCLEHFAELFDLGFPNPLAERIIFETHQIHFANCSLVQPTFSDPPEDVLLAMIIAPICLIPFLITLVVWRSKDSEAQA
How it was run: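 A subcloned monoclonal line stably expressing hAM1 receptor is thawed and plated at 8000 cells/well. The assay buffer is DPBS with 0.05% casein and 0.5 mM IBMX, and receptor activation is followed by cAMP levels.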

Row | SMILES | EC50 [1] | EC50 [2]
1 | CC[C@H](C)[C@H](NC(=O)[C@H](CCC(N)=O)NC(=O)[C@H](CCC(=O)O)NC(=O)[C@H](C)NC(=O)[C@H](CC(C)C)NC(=O)[C@H](CCCNC(=N)N)NC(=O)[C@H](CCC(N)=O)NC(=O)[C@@H](NC(=O)[C@@H](NC(=O)[C@@H]1CSSC[C@H](NC(=O)[C@H](CCCCN)NC(=O)CC[C@H](NC(=O)CCCCCCCCCCCCCCCCCCC(=O)O)C(=O)O)C(=O)N[C@@H](C)C(=O)N[C@@H]([C@@H](C)O)C(=O)N[C@@H](C)C(=O)N[C@@H]([C@@H](C)O)C(=O)N1)[C@@H](C)O)C(C)C)C(=O)N[C@@H](Cc1ccc(O)cc1)C(=O)N[C@@H](CCC(N)=O)C(=O)N[C@@H](Cc1ccccc1)C(=O)N[C@H](C(=O)N[C@@H](CC(=O)O)C(=O)N[C@@H](CCCCN)C(=O)N[C@@H](CC(=O)O)C(=O)N[C@@H](CCCCN)C(=O)N[C@@H](CC(=O)O)C(=O)N[C@@H](CC(N)=O)C(=O)N[C@H](C(=O)N[C@@H](C)C(=O)N1CCC[C@H]1C(=O)N1CCC[C@H]1C(=O)N[C@H](C(=O)N[C@@H](CC(N)=O)C(=O)N[C@H](C(=O)NCC(=O)N[C@@H](CO)C(=O)N[C@@H](CC(N)=O)C(=O)NCC(=O)N1C[C@H](O)C[C@H]1C(N)=O)C(C)C)[C@@H](C)O)C(C)C)[C@@H](C)O [compound 97] ({C20 diacid-γGlu}-KCATATCTVQRLAEQIYQFTDKDKDNVAPPTNVGSNG[Hyp]-NH2; disulfide 2-7) | 0.016 nM | > 5000 nM
2 | CC[C@H](C)[C@H](NC(=O)[C@H](CCC(N)=O)NC(=O)[C@H](CCC(=O)O)NC(=O)[C@H](C)NC(=O)[C@H](CC(C)C)NC(=O)[C@H](CCCNC(=N)N)NC(=O)[C@H](CCC(N)=O)NC(=O)[C@@H](NC(=O)[C@@H](NC(=O)[C@@H]1CSSC[C@H](NC(=O)[C@H](CCCCN)NC(=O)CC[C@H](NC(=O)CCCCCCCCCCCCCCCCCCC(=O)O)C(=O)O)C(=O)N[C@@H](CC(N)=O)C(=O)N[C@@H]([C@@H](C)O)C(=O)N[C@@H](C)C(=O)N[C@@H]([C@@H](C)O)C(=O)N1)[C@@H](C)O)C(C)C)C(=O)N[C@@H](Cc1ccc(O)cc1)C(=O)N[C@@H](CCC(N)=O)C(=O)N[C@@H](Cc1ccccc1)C(=O)N[C@H](C(=O)N[C@@H](CC(=O)O)C(=O)N[C@@H](CCCCN)C(=O)N[C@@H](CC(=O)O)C(=O)N[C@@H](CCCCN)C(=O)N[C@@H](CC(=O)O)C(=O)N[C@@H](CCC(N)=O)C(=O)N[C@H](C(=O)N[C@@H](C)C(=O)N1CCC[C@H]1C(=O)N1CCC[C@H]1C(=O)N[C@H](C(=O)N[C@@H](CC(N)=O)C(=O)N[C@H](C(=O)NCC(=O)N[C@@H](CO)C(=O)N[C@@H](CC(N)=O)C(=O)NCC(=O)N1C[C@H](O)C[C@H]1C(N)=O)C(C)C)[C@@H](C)O)C(C)C)[C@@H](C)O [compound 100] ({C20 diacid-γGlu}-KCNTATCTVQRLAEQIYQFTDKDKDQVAPPTNVGSNG[Hyp]-NH2; disulfide 2-7) | 0.017 nM | > 5000 nM
3 | CC[C@H](C)[C@H](NC(=O)[C@H](CCC(N)=O)NC(=O)[C@H](CCC(=O)O)NC(=O)[C@H](C)NC(=O)[C@H](CC(C)C)NC(=O)[C@H](CCCNC(=N)N)NC(=O)[C@H](CCC(N)=O)NC(=O)[C@@H](NC(=O)[C@@H](NC(=O)[C@@H]1CSSC[C@H](NC(=O)[C@@H](N)CCCCN)C(=O)N[C@@H](CC(N)=O)C(=O)N[C@@H](C)C(=O)N[C@@H](C)C(=O)N[C@@H]([C@@H](C)O)C(=O)N1)[C@@H](C)O)C(C)C)C(=O)N[C@@H](Cc1ccc(O)cc1)C(=O)N[C@@H](CCC(N)=O)C(=O)N[C@@H](Cc1ccccc1)C(=O)N[C@H](C(=O)N[C@@H](CC(=O)O)C(=O)N[C@@H](CCCCN)C(=O)N[C@@H](CC(=O)O)C(=O)N[C@@H](CCCCN)C(=O)N[C@@H](CC(=O)O)C(=O)N[C@@H](CC(N)=O)C(=O)N[C@H](C(=O)N[C@@H](C)C(=O)N1CCC[C@H]1C(=O)N1CCC[C@H]1C(=O)N[C@H](C(=O)N[C@@H](CC(N)=O)C(=O)N[C@H](C(=O)NCC(=O)N[C@@H](CO)C(=O)N[C@@H](CC(N)=O)C(=O)NCC(=O)N1C[C@H](O)C[C@H]1C(N)=O)C(C)C)[C@@H](C)O)C(C)C)[C@@H](C)O [compound 101] (H-KCNAATCTVQRLAEQIYQFTDKDKDNVAPPTNVGSNG[Hyp]-NH2; disulfide 2-7; N-terminus assumed) | 0.017 nM | > 5000 nM
4 | CC[C@H](C)[C@H](NC(=O)[C@H](CCC(N)=O)NC(=O)[C@H](Cc1c[nH]cn1)NC(=O)[C@H](C)NC(=O)[C@H](CC(C)C)NC(=O)[C@H](CCCNC(=N)N)NC(=O)[C@H](CCC(N)=O)NC(=O)[C@@H](NC(=O)[C@@H](NC(=O)[C@@H]1CSSC[C@H](NC(=O)[C@@H](N)CCCCN)C(=O)N[C@@H](CC(N)=O)C(=O)N[C@@H]([C@@H](C)O)C(=O)N[C@@H](C)C(=O)N[C@@H]([C@@H](C)O)C(=O)N1)[C@@H](C)O)C(C)C)C(=O)N[C@@H](Cc1ccc(O)cc1)C(=O)N[C@@H](CCC(N)=O)C(=O)N[C@@H](Cc1ccccc1)C(=O)N[C@H](C(=O)N[C@@H](CC(=O)O)C(=O)N[C@@H](CCCCN)C(=O)N[C@@H](CC(=O)O)C(=O)N[C@@H](CCCCN)C(=O)N[C@@H](CC(=O)O)C(=O)N[C@@H](CC(N)=O)C(=O)N[C@H](C(=O)N[C@@H](C)C(=O)N1CCC[C@H]1C(=O)N[C@@H](CCCNC(=N)N)C(=O)N[C@H](C(=O)N[C@@H](CCC(=O)O)C(=O)N[C@H](C(=O)NCC(=O)N[C@@H](CO)C(=O)N[C@@H](CC(N)=O)C(=O)NCC(=O)N[C@@H](Cc1ccc(O)cc1)C(N)=O)C(C)C)[C@@H](C)O)C(C)C)[C@@H](C)O [compound 102] (H-KCNTATCTVQRLAHQIYQFTDKDKDNVAPRTEVGSNGY-NH2; disulfide 2-7; N-terminus assumed) | 0.018 nM | > 5000 nM
5 | CC[C@H](C)[C@H](NC(=O)[C@H](CCC(N)=O)NC(=O)[C@H](Cc1c[nH]cn1)NC(=O)[C@H](C)NC(=O)[C@H](CC(C)C)NC(=O)[C@H](CCCNC(=N)N)NC(=O)[C@@H](NC(=O)[C@@H](NC(=O)[C@@H](NC(=O)[C@@H]1CSSC[C@H](NC(=O)[C@H](CCCCN)NC(=O)CC[C@H](NC(=O)CCCCCCCCCCCCCCCCCCC(=O)O)C(=O)O)C(=O)N[C@@H](CC(N)=O)C(=O)N[C@@H]([C@@H](C)O)C(=O)N[C@@H](C)C(=O)N[C@@H]([C@@H](C)O)C(=O)N1)[C@@H](C)O)C(C)C)C(C)C)C(=O)N[C@@H](Cc1ccc(O)cc1)C(=O)N[C@@H](CCC(N)=O)C(=O)N[C@@H](Cc1ccccc1)C(=O)N[C@H](C(=O)N[C@@H](CC(=O)O)C(=O)N[C@@H](CCCCN)C(=O)N[C@@H](CC(=O)O)C(=O)N[C@@H](CCCCN)C(=O)N[C@@H](CC(=O)O)C(=O)N[C@@H](CC(N)=O)C(=O)N[C@H](C(=O)N[C@@H](C)C(=O)N1CCC[C@H]1C(=O)N1CCC[C@H]1C(=O)N[C@H](C(=O)N[C@@H](CC(N)=O)C(=O)N[C@H](C(=O)NCC(=O)N[C@@H](CO)C(=O)N[C@@H](CC(N)=O)C(=O)NCC(=O)N1C[C@H](O)C[C@H]1C(N)=O)C(C)C)[C@@H](C)O)C(C)C)[C@@H](C)O [compound 103] ({C20 diacid-γGlu}-KCNTATCTVVRLAHQIYQFTDKDKDNVAPPTNVGSNG[Hyp]-NH2; disulfide 2-7) | 0.018 nM | > 5000 nM
6 | CC[C@H](C)[C@H](NC(=O)[C@H](CCC(N)=O)NC(=O)[C@H](Cc1c[nH]cn1)NC(=O)[C@H](C)NC(=O)[C@H](CC(C)C)NC(=O)[C@H](CCCNC(=N)N)NC(=O)[C@H](CCC(N)=O)NC(=O)[C@@H](NC(=O)[C@@H](NC(=O)[C@@H]1CSSC[C@H](NC(=O)[C@H](CCCCN)NC(=O)CC[C@H](NC(=O)CCCCCCCCCCCCCCCCCCC(=O)O)C(=O)O)C(=O)N[C@@H](CC(N)=O)C(=O)N[C@@H]([C@@H](C)O)C(=O)N[C@@H](C)C(=O)N[C@@H]([C@@H](C)O)C(=O)N1)[C@@H](C)O)C(C)C)C(=O)N[C@@H](Cc1ccc(O)cc1)C(=O)N[C@@H](CCC(N)=O)C(=O)N[C@@H](Cc1ccccc1)C(=O)N[C@@H](Cc1ccc(O)cc1)C(=O)N[C@@H](CC(=O)O)C(=O)N[C@@H](CCCCN)C(=O)N[C@@H](CC(=O)O)C(=O)N[C@@H](CCCCN)C(=O)N[C@@H](CC(=O)O)C(=O)N[C@@H](CC(N)=O)C(=O)N[C@H](C(=O)N[C@@H](C)C(=O)N1CCC[C@H]1C(=O)N1CCC[C@H]1C(=O)N[C@H](C(=O)N[C@@H](CC(N)=O)C(=O)N[C@H](C(=O)NCC(=O)N[C@@H](CO)C(=O)N[C@@H](CC(N)=O)C(=O)NCC(=O)N1C[C@H](O)C[C@H]1C(N)=O)C(C)C)[C@@H](C)O)C(C)C [compound 104] ({C20 diacid-γGlu}-KCNTATCTVQRLAHQIYQFYDKDKDNVAPPTNVGSNG[Hyp]-NH2; disulfide 2-7) | 0.018 nM | > 5000 nM
